Data from US10131652B2, “Pyrimidinyloxy benzene derivatives as herbicides” (E. I. DU PONT DE NEMOURS AND COMPANY, priority 2014, dated 2018).
Like-named read-outs stand apart in the source and are kept apart here.

Legend:
Assay in all cases: Test D pre-/postemergence plant response
Type in all cases: in vivo
[1] = tested on: barnyardgrass (Echinochloa crus-galli); conditions: Echinochloa crus-galli; for pest or weed control at 16 g/ha: 16 g ai/ha; for pest or weed control at 16 g/ha / pest or weed control at 31 g/ha: scale 0 to 100 (0 no effect, 100 complete control); for pest or weed control at 31 g/ha: 31 g ai/ha; for pest or weed control at 62 g/ha: 62 g ai/ha; for pest or weed control at 125 g/ha: 125 g ai/ha
Source text: (§1) Seeds of plant species selected from blackgrass (Alopecurus myosuroides), Italian ryegrass (Lolium multiflorum), winter wheat (Triticum aestivum), galium (catchweed bedstraw, Galium aparine), corn (Zea mays), large (Lg) crabgrass (Digitaria sanguinalis), giant foxtail (Setaria faberii), johnsongrass (Sorghum halepense), lambsquarters (Chenopodium album), morningglory (Ipomoea coccinea), yellow nutsedge (Cyperus esculentus), pigweed (Amaranthus retroflexus), ragweed (common ragweed, Ambrosia elatior), soybean (Glycine max), bamyardgrass (Echinochloa crus-galli), oilseed rape (Brassica napus), waterhemp (common waterhemp, Amaranthus rudis), and velvetleaf (Abutilon theophrasti) were planted into a blend of loam soil and sand and treated preemergence with test chemicals formulated in a non-phytotoxic solvent mixture which included a surfactant. At the same time, plants selected from these crop and weed species and also kochia (Kochia scoparia), wild oat (Avena fatua), and chickweed (common chickweed, Stellaria media) were planted in pots containing Redi-Earth® planting medium (Scotts Company, 14111 Scottslawn Road, Marysville, Ohio 43041) comprising spaghnum peat moss, vermiculite, wetting agent and starter nutrients and treated with postemergence applications of test chemicals formulated in the same manner. Plants ranged in height from 2 to 18 cm (1- to 4-leaf stage) for postemergence treatments. Treated plants and controls were maintained in a greenhouse for 13 to 15 days, after which time all species were compared to controls and visually evaluated. Plant response ratings, summarized in Table D, are based on a scale of 0 to 100 where 0 is no effect and 100 is complete control. A dash (-) response means no test result.

[2] = tested on: large (Lg) crabgrass (Digitaria sanguinalis); conditions: Digitaria sanguinalis; for pest or weed control at 16 g/ha: 16 g ai/ha; for pest or weed control at 31 g/ha: 31 g ai/ha; for pest or weed control at 62 g/ha: 62 g ai/ha; for pest or weed control at 125 g/ha: 125 g ai/ha
Source text: as §1

[3] = tested on: corn (Zea mays); conditions: Zea mays; for Corn plant response rating (crop injury, 0 = no effect, 100 = complete kill) at 62 g/ha: 62 g ai/ha
Source text: as §1

[4] = tested on: oilseed rape (Brassica napus); conditions: Brassica napus; for plant injury at 16 g/ha: 16 g ai/ha; for plant injury at 31 g/ha: 31 g ai/ha; for plant injury at 62 g/ha: 62 g ai/ha; for plant injury at 125 g/ha: 125 g ai/ha
Source text: as §1

[5] = tested on: pigweed (Amaranthus retroflexus); conditions: Amaranthus retroflexus; for pest or weed control at 16 g/ha: 16 g ai/ha; for pest or weed control at 31 g/ha: 31 g ai/ha; for pest or weed control at 62 g/ha: 62 g ai/ha; for pest or weed control at 125 g/ha: 125 g ai/ha
Source text: as §1

[6] = tested on: yellow nutsedge (Cyperus esculentus); conditions: Cyperus; for pest or weed control at 16 g/ha: 16 g ai/ha; for pest or weed control at 31 g/ha: 31 g ai/ha; for pest or weed control at 62 g/ha: 62 g ai/ha; for pest or weed control at 125 g/ha: 125 g ai/ha
Source text: as §1

[7] = tested on: johnsongrass (Sorghum halepense); conditions: Sorghum halepense; for pest or weed control at 16 g/ha: 16 g ai/ha; for pest or weed control at 31 g/ha: 31 g ai/ha; for pest or weed control at 62 g/ha: 62 g ai/ha; for pest or weed control at 125 g/ha: 125 g ai/ha
Source text: as §1

[8] = tested on: ragweed (common ragweed, Ambrosia elatior); conditions: Ambrosia artemisiifolia; for pest or weed control at 16 g/ha: 16 g ai/ha; for pest or weed control at 31 g/ha: 31 g ai/ha; for pest or weed control at 62 g/ha: 62 g ai/ha; for pest or weed control at 125 g/ha: 125 g ai/ha
Source text: as §1

[9] = tested on: Italian ryegrass (Lolium multiflorum); conditions: Lolium multiflorum; for pest or weed control at 16 g/ha: 16 g ai/ha; for pest or weed control at 31 g/ha: 31 g ai/ha; for pest or weed control at 62 g/ha: 62 g ai/ha; for pest or weed control at 125 g/ha: 125 g ai/ha
Source text: as §1

[10] = post-emergence, Postemergence, read-out: Barnyardgrass plant response rating
[11] = post-emergence, Postemergence, scale 0 to 100, 0 no effect, 100 complete control, read-out: Plant response rating, Barnyardgrass
[12] = pre-emergence, Preemergence, read-out: Plant response rating (scale 0 to 100), Barnyardgrass
[13] = pre-emergence, Preemergence, read-out: Plant response rating, Barnyardgrass
[14] = post-emergence, Postemergence, scale 0 to 100 (0 no effect, 100 complete control), read-out: Crabgrass, Large plant response rating
[15] = post-emergence, Postemergence, scale 0 to 100, 0 no effect, 100 complete control, read-out: Plant response rating, Crabgrass, Large
[16] = pre-emergence, Preemergence, scale 0 to 100 (0 no effect, 100 complete control), read-out: Plant response rating, Crabgrass, Large
[17] = post-emergence, Postemergence, scale 0 to 100 (0 no effect, 100 complete control), read-out: Oilseed Rape plant response rating
[18] = post-emergence, Postemergence, scale 0 to 100, 0 no effect, 100 complete control, read-out: Plant response rating, Oilseed Rape
[19] = pre-emergence, Preemergence, scale 0 to 100 (0 no effect, 100 complete control), read-out: Plant response rating, Oilseed Rape
[20] = post-emergence, Postemergence, scale 0 to 100 (0 no effect, 100 complete control), read-out: Pigweed plant response rating
[21] = post-emergence, Postemergence, scale 0 to 100, 0 no effect, 100 complete control, read-out: Plant response rating, Pigweed
[22] = pre-emergence, Preemergence, scale 0 to 100 (0 no effect, 100 complete control), read-out: Plant response rating, Pigweed
[23] = post-emergence, Postemergence, scale 0 to 100 (0 no effect, 100 complete control), read-out: Nutsedge, Yellow plant response rating
[24] = post-emergence, Postemergence, scale 0 to 100, 0 no effect, 100 complete control, read-out: Plant response rating, Nutsedge, Yellow
[25] = pre-emergence, Preemergence, scale 0 to 100 (0 no effect, 100 complete control), read-out: Plant response rating, Nutsedge, Yellow
[26] = post-emergence, Postemergence, scale 0 to 100 (0 no effect, 100 complete control), read-out: Johnsongrass plant response rating
[27] = post-emergence, Postemergence, scale 0 to 100, 0 no effect, 100 complete control, read-out: Plant response rating, Johnsongrass
[28] = pre-emergence, Preemergence, scale 0 to 100 (0 no effect, 100 complete control), read-out: Plant response rating, Johnsongrass
[29] = post-emergence, Postemergence, scale 0 to 100 (0 no effect, 100 complete control), read-out: Ragweed plant response rating
[30] = post-emergence, Postemergence, scale 0 to 100, 0 no effect, 100 complete control, read-out: Plant response rating, Ragweed
[31] = pre-emergence, Preemergence, scale 0 to 100 (0 no effect, 100 complete control), read-out: Plant response rating, Ragweed
[32] = post-emergence, Postemergence, scale 0 to 100 (0 no effect, 100 complete control), read-out: Ryegrass, Italian plant response rating
[33] = post-emergence, Postemergence, scale 0 to 100, 0 no effect, 100 complete control, read-out: Plant response rating, Ryegrass, Italian
[34] = pre-emergence, Preemergence, scale 0 to 100 (0 no effect, 100 complete control), read-out: Plant response rating, Ryegrass, Italian

Fc1cccc(Oc2ncc(Cl)cn2)c1-c1cc(C(F)F)on1 [Compound 55, 5-chloro-2-[2-[5-(difluoromethyl)-3-isoxazolyl]-3-fluorophenoxy]pyrimidine]
35%: Corn plant response rating (crop injury, 0 = no effect, 100 = complete kill) at 62 g/ha ([3]; pre-emergence, Preemergence, scale 0 to 100 (0 no effect, 100 complete control)) | pest or weed control at 31 g/ha [9, 34]
65%: pest or weed control at 62 g/ha [8, 30]
10%: pest or weed control at 31 g/ha [1, 10] | pest or weed control at 31 g/ha [2, 14] | pest or weed control at 62 g/ha [2, 15] | plant injury at 16 g/ha ([3]; post-emergence, Postemergence, 16 g ai/ha, scale 0 to 100 (0 no effect, 100 complete control), read-out: Corn plant response rating) | plant injury at 31 g/ha ([3]; post-emergence, Postemergence, 31 g ai/ha, scale 0 to 100 (0 no effect, 100 complete control), read-out: Corn plant response rating) | Corn plant response rating (crop injury, 0 = no effect, 100 = complete kill) at 62 g/ha ([3]; post-emergence, Postemergence, scale 0 to 100, 0 no effect, 100 complete control) | pest or weed control at 31 g/ha [6, 25] | pest or weed control at 62 g/ha [7, 27] | pest or weed control at 62 g/ha [9, 33]
75%: pest or weed control at 31 g/ha [7, 28] | pest or weed control at 31 g/ha [8, 31]
98%: pest or weed control at 62 g/ha [5, 21]
30%: pest or weed control at 16 g/ha [7, 28]
40%: pest or weed control at 31 g/ha [8, 29]
25%: pest or weed control at 16 g/ha [1, 13] | pest or weed control at 16 g/ha [8, 29]
95%: plant injury at 16 g/ha [4, 17] | plant injury at 31 g/ha [4, 17] | pest or weed control at 125 g/ha ([8]; pre-emergence, Preemergence, read-out: Plant response rating (scale 0 to 100), Ragweed) | pest or weed control at 125 g/ha ([9]; pre-emergence, Preemergence, read-out: Plant response rating (scale 0 to 100), Ryegrass, Italian)
15%: pest or weed control at 62 g/ha [1, 11] | pest or weed control at 125 g/ha [1, 11] | pest or weed control at 125 g/ha [2, 15] | pest or weed control at 125 g/ha [7, 27] | pest or weed control at 125 g/ha [9, 33] | pest or weed control at 16 g/ha [9, 34]
0%: pest or weed control at 16 g/ha [6, 23] | pest or weed control at 16 g/ha [6, 25] | pest or weed control at 16 g/ha [9, 32]
100%: pest or weed control at 62 g/ha [1, 12] | pest or weed control at 125 g/ha [1, 12] | pest or weed control at 125 g/ha ([2]; pre-emergence, Preemergence, read-out: Plant response rating (scale 0 to 100), Crabgrass, Large) | pest or weed control at 16 g/ha [2, 16] | pest or weed control at 31 g/ha [2, 16] | pest or weed control at 62 g/ha [2, 16] | plant injury at 62 g/ha [4, 18] | plant injury at 125 g/ha [4, 18] | plant injury at 125 g/ha ([4]; pre-emergence, Preemergence, read-out: Plant response rating (scale 0 to 100), Oilseed Rape) | plant injury at 16 g/ha [4, 19] | plant injury at 31 g/ha [4, 19] | plant injury at 62 g/ha [4, 19] | pest or weed control at 125 g/ha [5, 21] | pest or weed control at 125 g/ha ([5]; pre-emergence, Preemergence, read-out: Plant response rating (scale 0 to 100), Pigweed) | pest or weed control at 16 g/ha [5, 22] | pest or weed control at 31 g/ha [5, 22] | pest or weed control at 62 g/ha [5, 22] | pest or weed control at 125 g/ha ([7]; pre-emergence, Preemergence, read-out: Plant response rating (scale 0 to 100), Johnsongrass)
85%: pest or weed control at 31 g/ha [1, 13] | pest or weed control at 16 g/ha [5, 20] | pest or weed control at 31 g/ha [5, 20] | pest or weed control at 62 g/ha [7, 28] | pest or weed control at 62 g/ha [9, 34]
70%: pest or weed control at 125 g/ha ([6]; pre-emergence, Preemergence, read-out: Plant response rating (scale 0 to 100), Nutsedge, Yellow) | pest or weed control at 16 g/ha [8, 31]
55%: pest or weed control at 62 g/ha [6, 25]
20%: Corn plant response rating (crop injury, 0 = no effect, 100 = complete kill) at 125 g/ha ([3]; post-emergence, Postemergence, 125 g ai/ha, scale 0 to 100, 0 no effect, 100 complete control) | Corn plant response rating (crop injury, 0 = no effect, 100 = complete kill) at 31 g/ha ([3]; pre-emergence, Preemergence, 31 g ai/ha, scale 0 to 100 (0 no effect, 100 complete control))
5%: pest or weed control at 16 g/ha [1, 10] | pest or weed control at 16 g/ha [2, 14] | Corn plant response rating (crop injury, 0 = no effect, 100 = complete kill) at 16 g/ha ([3]; pre-emergence, Preemergence, 16 g ai/ha, scale 0 to 100 (0 no effect, 100 complete control)) | pest or weed control at 31 g/ha [6, 23] | pest or weed control at 62 g/ha [6, 24] | pest or weed control at 125 g/ha [6, 24] | pest or weed control at 16 g/ha [7, 26] | pest or weed control at 31 g/ha [7, 26] | pest or weed control at 31 g/ha [9, 32]
80%: plant injury at 125 g/ha ([3]; pre-emergence, Preemergence, 125 g ai/ha, read-out: Plant response rating (scale 0 to 100), Corn)
90%: pest or weed control at 125 g/ha [8, 30] | pest or weed control at 62 g/ha [8, 31]
